Like-named read-outs stand apart in the source and are kept apart here. No end group written: not given here.
Key:
[1] = system: mineralized mouse bone marrow nodules; experiment: Binding to mineralized mouse bone marrow nodules (fluorescence microscopy); format: cell-based; conditions: 2.5 μM 5(6)-carboxyfluorescein-labeled peptide, three weeks
Procedure: FIG. 2: Binding of 6DSS peptide to mineralized mouse bone marrow nodules (MBMNs). Mouse bone marrow cultures were grown to confluence, then treated for three weeks with 2.5 μM scrambled control peptide or 2.5 μM 6DSS. Cultures were imaged by fluorescence microscopy using a FITC filter set. A. Brightfield image of mineralized MBMNs from a culture treated with 6DSS. B. Fluorescence image of the field shown in (A). […] C. Brightfield image of mineralized MBMNs from a culture treated with scrambled control peptide. D. Fluorescence image of the field shown in (C), illustrating both the lack of binding of the control peptide to the MBMN's and the lack of autofluorescence within the sample. Mouse bone marrow cultures were grown to confluence in DMEM+10% FBS, then treated continuously for three weeks with either 2.5 μM 5(6)-carboxyfluorescein-labeled 6DSS or 2.5 μM 5(6)-carboxyfluorescein-labeled peptide #3-1 (scrambled control peptide, SEQ. ID NO. 24) in aMEM+10% FBS with 50 μg/mL ascorbic acid 4 mM β-glycerophosphate. Cultures were imaged by fluorescence microscopy using a FITC excitation/emission filter set, and both brightfield and fluorescence images were obtained.

[2] = Preferential binding to carious lesions in teeth (CLSM); set-up: species or system human; conditions: labeled peptide, settings optimized per sample
Procedure: FIG. 9: Fluorescence micrographs showing specific binding of DSS peptides and variants to carious lesions in teeth. Adult human teeth were exposed to 12.5 uM 5(6)-carboxyfluorescein-labeled peptide without demineralization, washed extensively, and imaged by CLSM. Microscope and camera settings were optimized separately for each sample. […] White traces on the right side of each panel identify the position of the tooth surface, while arrows indicate the position of the stained lesion.
Sections of human teeth containing obvious carious lesions, which consist of demineralized enamel, were polished and exposed to 5(6)-carboxyfluorescein-labeled DSS peptides and variants using the protocol described in Example 2. The sections were washed extensively and imaged by CLSM using blue laser illumination (λ=488 nm) and a FITC emission filter, with microscope and camera settings adjusted for each sample to optimize the signal detected from each peptide. The images were examined to identify the relative levels of peptide binding in healthy versus carious tissue. […] Given their ability to remineralize at sites of enamel degradation (Example 6), they can also be used to initiate remineralization at sites of enamel degradation such as caries or injury sites without causing inappropriate nucleation on healthy tissue surfaces.

[3] = Tissue specific binding of DSS peptides and variants in human teeth (CLSM); conditions: 12.5 μM labeled peptide
Procedure: FIG. 8: Fluorescence micrographs showing tissue specificity in the binding of DSS peptides and variants. Adult human teeth were exposed to 12.5 μM 5(6)-carboxyfluorescein-labeled peptide without demineralization, washed extensively, and imaged by CLSM. For each section, multiple scans were collected and assembled in an automated mode to generate panels of images representing an area of 13×13 mm, sufficient in most cases to encompass the whole section. The peptides used for each section are labeled beneath each panel, and within each panel the tooth is oriented with the root toward the top of the image and the crown toward the bottom. Tissue layers are labeled as follows: RTD=Root Tip Dentin; CPD=Circumpulpal Dentin; MD=Mantle Dentin; P=Pulp Cavity Wall; DEJ=Dentin-Enamel Junction; E=Enamel; BE=Basal Enamel; CE=Cortical Enamel; CL=Carious Lesion; PB=Periodontal Bone.
In order to investigate the tissue specificity of DSS peptide binding to tooth tissue, sections of human teeth were exposed to DSS peptides and variants, then imaged by CLSM as described in Example 2. The peptides utilized for these experiments were 8DSS, 8ASS, 8DAA, 8NAA, 4DSS, 4ESS, 4NSS, 4DTT, 4ETT, 4NTT, and 6DSS. Sagittal sections of human teeth extracted during normal clinical practice were polished and then incubated for ten minutes in a solution of the appropriate 5(6) carboxyfluorescein-labeled peptide (12.5 μM) containing 10 mM NaCl and 50 mM HEPES, pH 7.0. Control samples were prepared without peptide. Samples were washed extensively after treatment and imaged by CLSM using blue laser illumination (λ=488 nm) and a FITC emission filter, with identical camera and microscope settings for each sample. For each section, multiple scans were collected and assembled in an automated mode to generate panels of images representing an area of 13×13 mm, sufficient in most cases to encompass the whole section. […] Significant binding was also seen to the edges of the pulp cavity.

[4] = Binding of labeled 6DSS to sagitally sectioned human teeth (CLSM)
Procedure: FIG. 1: Binding affinities of DSS and DSS variant peptides for hydroxyapatite and tooth surfaces. A-C. Fluorescein-labeled peptides at concentrations ranging from 0-100 μM were incubated with 0.3 mg of hydroxyapatite nanocrystals (specific surface area=100 m^2/g) for ten minutes, followed by removal of the hydroxyapatite by centrifugation. The amount of peptide in the mixture before and after hydroxyapatite removal was determined by Abs480. Isotherms were plotted and fit to the Langmuir equation to extract values for KA, a constant reflecting the affinity of the peptide for the hydroxyapatite surface. D. Sagitally sectioned human teeth were incubated with 12.5 μM 5(6) carboxyfluorescein-labeled 6DSS peptide for ten minutes, followed by rinsing. Peptide binding to tooth surfaces was visualized by Confocal Laser Scanning Microscopy (CLSM) using blue laser illumination (λA=488 nm) and a FITC emission filter. Left side, light colored region: dentin. Right side, dark colored region: enamel.
Control samples were prepared without peptide. Samples were rinsed after treatment and imaged by confocal laser scanning microscopy (CLSM) using blue laser illumination (excitation wavelength (λ)=488 nm) and a FITC emission filter.

[5] = system: Streptococcus mutans strain UA159; format: cell-based
Text: In order to determine the suitability of DSS peptides to serve as targeting moieties to deliver therapeutic compounds to mineralized surfaces, peptides were synthesized containing an N-terminal (DSS)4, (DSS)5, or (DSS)6 peptide, a triglycine (GGG) linker, and a 2c-4 antimicrobial peptide (SEQ ID NO:26) (J. He, unpublished). The sequences of these fusion proteins are set forth in SEQ ID NOs:27-29, respectively. The antimicrobial activity of these peptides against anaerobic planktonic bacteria was determined by a modification of a previously described assay (Qi 2005). Briefly, Streptococcus mutans strain UA159 cells were diluted to ˜1×10^5 cfu/mL in Todd-Hewitt (TH) broth medium and mixed with either suspended hydroxyapatite nanocrystals (Berkeley Advanced Biomaterials, Inc., 0.03% w/v) or, for control samples, an equivalent volume of deionized water. Aliquots were transferred into 96-well plates (Fisher). Serial dilutions of the peptides were then made and added to the bacteria. […] Nonetheless, some antimicrobial activity is retained by this peptide.

## 6DSS: peptide containing six Asp-Ser-Ser (DSS) repeats, SEQ ID NO:14 (DSSDSSDSSDSSDSSDSS; calcium binding peptide containing six DSS repeats, 6DSS, (DSS)-6)
[1]
  Staining of mineralizing nodules: Strong staining
[2]
  Specificity of binding to carious lesions versus surrounding healthy enamel: highly specific binding to carious lesions
  Strength of staining of carious lesions: exceptionally strong staining of carious lesions
[3]; nondemineralized teeth
  Tissue binding pattern in healthy tooth section: bound primarily to the mantle dentin
[3]; ten minutes, identical settings
  Level of binding (staining) to tooth surfaces: greatest levels of staining
[4]; 12.5 μM 5(6) carboxyfluorescein-labeled peptide, ten minutes
  Fluorescent staining of tooth surface: Intense fluorescent staining
[4]; 12.5 μM labeled peptide, dentin versus enamel
  Location of peptide binding in tooth section: limited to the dentin

## DSSDSSDSSDSSGGGRWRWRWF [4DSS-2c4]
[5]; planktonic S. mutans, with 0.03% (w/v) hydroxyapatite, approximately 24 hours
  MIC: unaffected
[5]; strain UA159, 24 h
  MIC: 52.5 µM

## FHFHLHF [PL-135, reference compound]
[5]; strain UA159, 24 h
  MIC: 21 µM

## LKRFLKWFKRF [b-34, reference compound]
[5]; strain UA159, 24 h
  MIC: 5.6 µM

## RWRWRWF [2c-4, reference compound]
[5]; strain UA159, 24 h
  MIC: 2 µM

## peptide #3-1: scrambled control peptide, SEQ. ID NO. 24 (LIKHILHRL; scrambled control peptide #3-1) [reference compound]
[1]
  Staining of mineralizing nodules: No staining

— US20090098050A1, “CALCIUM BINDING PEPTIDES” (THE REGENTS OF THE UNVERSITY OF CALIFORNIA, priority 2005, published 2009)
